# Test results as given in PMC12490239, “Combining BET inhibition with SMAC mimetics restricts tumor growth and triggers immune surveillance in preclinical cancer models” (Cell Reports Medicine, 2025).
# Experiments:
# Assay in all cases: cells
# Set-up in all cases: CellTiter-Glo 2.0 luminescence proliferation/viability assay, single agents, human tumour cell line panel
# CAR1 = conditions: Homo sapiens, CaR-1, 96 h; single agent; read-out: IC50 SMACm
# Protocol: (§1) The effect of BETi, SMACm alone or in combination cell viability was determined using a 96-h CellTiter-Glo2.0 proliferation assay. Cells were seeded in assay plates and placed at 37°C with 5% CO2 for twenty-four hours before treatment. Compounds were added in triplicate in gradients of increasing concentrations, in case of SMACm ranging between 4.5 nM and 10 μM and in case of BETi between 1.4 nM and 3 μM. DMSO served as control. Cell viability was measured by luminescence analysis using luminescence read on Envision plate readers (PerkinElmer). An additional set of colorectal cancer cell lines was assayed with technical duplicates and experimental triplicates. Cell viability was measured by luminescence analysis using luminescence read on Tecan Plate reader. The effects of drug combinations were analyzed using the Bliss Independence Model.[34] Synergy score was calculated by the average of 3 highest and 3 lowest BLISS Gaps between predicted and measured POC (Percentage of Control) values. To investigate the synergistic interaction between BI 894999 (hereafter, BETi) and BI 891065 (hereafter, SMACm), we evaluated the in vitro anti-tumor effect of the single agents or the combination in a large panel of 151 cancer cell lines of different tissue origin: CRC, gastric cancer, non-small cell lung cancer (NSCLC), and pancreatic carcinoma (Figures 1C–1F). As a mono-agent, SMACm was able to inhibit cell proliferation only in a limited number of tested cell lines (4%, Table S2). Most of the cell lines responded to inhibition by BETi, with sensitivity ranging from 10 to 100 nM (Figure 1C). Bliss Gap analysis, performed to analyze the effect of the BETi+SMACm combination on tumor cell growth (Figures 1D–1F), unveiled potent synergistic activity across the cell models tested (Figure 1E), independent of tumor type (Figure 1F).  Figure 1 The combinatorial effect of BI 894999 and BI 891065 across a panel of human tumor cell lines (A) Selectivity and potency profiles of BI 891065. Top left, structure of BI 891065. Top right, IC50 values for BI 891065 inhibition of cIAP1, cIAP2, and XIAP. Bottom, physicochemical properties of […]. (B) WES (Simple Western System) analysis of cIAP1, cIAP2, and XIAP levels upon treatment of HT-29 cells with indicated concentrations of BI 891065 for 6 h (C) IC50 values determined in cell proliferation assays (n = 151) individually for BETi BI 894999 and SMACm BI 891065. Each point represents a cell line tested. (D) Example of proliferation assay for synergy analysis in LoVo cell line; shown is combination plate map matrix and the cell growth inhibition (CGI) at the indicated concentrations; CGI values < 100%: tumor cell growth, CGI 100%: tumor cell stasis, and CGI > 100%: tumor cell killing. (E) Synergy scores across the tested panel of cell lines obtained using Bliss synergy analysis. (F) Violin plots showing the synergy scores for BETi and SMACm combination across indications. N is the number of cell lines tested in each indication group.
# C10 = conditions: 96 h; single agent; read-out: IC50 SMACm
# Protocol: as §1
# CACO2 = conditions: Homo sapiens, Caco-2, 96 h; single agent; read-out: IC50 SMACm
# Protocol: as §1
# HROC374 = conditions: 96 h; single agent; read-out: IC50 SMACm
# Protocol: as §1
# LU-65 = conditions: Homo sapiens, Lu-65, 96 h; single agent; read-out: IC50 SMACm
# Protocol: as §1
# SNU254 = conditions: 96 h; single agent; read-out: IC50 SMACm
# Protocol: as §1
# AsPC-1 = conditions: Homo sapiens, ASPC1, 96 h; single agent; read-out: IC50 SMACm
# Protocol: as §1
# SW48 = conditions: Homo sapiens, SW48, 96 h; single agent; read-out: IC50 SMACm
# Protocol: as §1
# CFPAC-1 = conditions: Homo sapiens, CFPAC-1, 96 h; single agent; read-out: IC50 SMACm
# Protocol: as §1
# COLO60H = conditions: 96 h; single agent; read-out: IC50 SMACm
# Protocol: as §1
# SNU1684 = conditions: 96 h; single agent; read-out: IC50 SMACm
# Protocol: as §1
# HCC78 = conditions: Homo sapiens, HCC78, 96 h; single agent; read-out: IC50 SMACm
# Protocol: as §1
# RCM-1 = conditions: Homo sapiens, RCM-1, 96 h; single agent; read-out: IC50 SMACm
# Protocol: as §1
# NCI-H2228 = conditions: Homo sapiens, NCI-H2228, 96 h; single agent; read-out: IC50 SMACm
# Protocol: as §1
# HCT-15 = conditions: Homo sapiens, HCT-15, 96 h; single agent; read-out: IC50 SMACm
# Protocol: as §1
compound,measurement,setting,value
"CN[C@@H](C)C(=O)Nc1ccc(-c2c(-c3cccnc3OC)nc3cc(C)ccn23)c(C#Cc2ccc3c(C)nccc3c2)n1 [SMACm, BI 891065]",IC50,CAR1,2.1 µM
same,IC50,C10,6.47 µM
same,IC50,CACO2,2.97 µM
same,IC50,HROC374,3.34 µM
same,IC50,LU-65,4.35 µM
same,IC50,SNU254,1.76 µM
same,IC50,AsPC-1,> 10 µM
same,IC50,SW48,5.9 µM
same,IC50,CFPAC-1,1.99 µM
same,IC50,COLO60H,4.37 µM
same,IC50,SNU1684,3.2 µM
same,IC50,HCC78,5.11 µM
same,IC50,RCM-1,5.76 µM
same,IC50,NCI-H2228,4.44 µM
same,IC50,HCT-15,2.82 µM
